Reference: patent publication US20250313547A1, “CEREBLON LIGANDS AND BIFUNCTIONAL COMPOUNDS COMPRISING THE SAME” (Arvinas Operations, Inc., priority 2017, published 2025)

System: androgen receptor (AR)
Test: AR ELISA assay (androgen receptor degradation)
Type: cell-based
Settings: LNCaP and/or VCaP cells, 5 hours drug treatment; for AR Dmax: % degraded
Experimental: 5. AR ELISA Assay Protocol
Compounds were evaluated in this assay in LNCaP and/or VCaP cells utilizing similar protocols. The protocols used with VCaP cells are described below. The androgen receptor ELISA assay was performed using PathScan AR Sandwich ELISA (Cell Signaling Catalog #12850) according to the following assay steps:
VCaP cells were seeded at 40,000 cells/well at a volume of 100 µL/well in VCaP assay medium [Phenol red free RPMI (Gibco Cat #11835-030); 5% Charcoal Stripped (Dextran treated) FBS (Omega Scientific, Cat #FB-04); 1% penstrep (Life Technologies, Gibco Cat #: 10378-016)] in Corning 3904 plates. The cells were incubated for a minimum of 3 days. Cells were dosed with PROTACs diluted in 0.01% DMSO and the drug treatment was allowed for 5 hours.
AR ELISA (Cell Signaling) was performed as follows. 1×Cell Signaling Cell lysis buffer was made (Catalogue #9803; comes with the kit). Media from the treated wells is aspirated, and 100 μL 1×cell lysis buffer/well is added. The cells were placed on a shaker for 10 minutes at 4° C. Twenty microliters of lysate was transferred to 100 μl of Diluent in ELISA plate ([…]-0.075 μg/ml). The lysate-diluent mixture was shaken for 30 minutes at 37° C. Allow mouse AR antibody, anti-mouse antibody, TMB, and STOP solution to come to room temperature. The 1×ELISA buffer included in kit was made and loaded in the reservoir. Media from the plates was discarded, the ELISA plate tapped hard on paper towel, and washed 4×200 μl ELISA wash buffer using a plate washer.
One-hundred (100) μL/well of mouse AR detection Ab was added; the plates were covered and shaken at 37° C. for 1 hour; media was discarded from the plates, the plates were tapped on a paper towel, washed 4× with 200 μL ELISA wash buffer with a plate washer.
One-hundred (100) μL/well of anti-mouse—HRP conjugated Ab (comes with the kit) was added; the plates were covered and shaken at 37° C. for 30 minutes; the TMB reagent was allowed to come to room temperature; the media was discard from the plate, the plates were tapped on paper towel, washed 4× with 200 μL of ELISA wash buffer; the plates were tapped the plates on paper towel. One-hundred (100) μL of TMB was added and the plates shaken for 2 minutes—while watching for color development. One-hundred (100) μL Stop solution was added when light blue color developed. Plates were shaken and read at 450 nm.

Row | SMILES | DC50 [nM] | AR Dmax
1 | CCN(C(=O)c1ccc(OCCCCCN2CCN(c3ccc(C(=O)N[C@H]4C(C)(C)[C@H](Oc5ccc(C#N)c(Cl)c5)C4(C)C)cn3)CC2)cc1)C1CCC(=O)NC1=O (mixture of isomers) [PROTAC-48, rac-N-((1r,3r)-3-(3-chloro-4-cyanophenoxy)-2,2,4,4-tetramethylcyclobutyl)-6-(4-(5-(4-((2,6-dioxopiperidin-3-yl)(ethyl)carbamoyl)phenoxy)pentyl)piperazin-1-yl)nicotinamide] | ≥ 100 | C (C <= 50)
2 | CC1(C)[C@H](NC(=O)c2ccc(N3CCN(CCCOc4ccc(C(=O)NC5CCC(=O)NC5=O)nc4)CC3)nc2)C(C)(C)[C@H]1Oc1ccc(C#N)c(Cl)c1 (some centres unmarked) [PROTAC-50, 5-(3-(4-(5-(((1r,3r)-3-(3-chloro-4-cyanophenoxy)-2,2,4,4-tetramethylcyclobutyl)carbamoyl)pyridin-2-yl)piperazin-1-yl)propoxy)-N-(2,6-dioxopiperidin-3-yl)picolinamide] | < 1 | B (50 < B <= 75)
3 | CC1(C)[C@H](NC(=O)c2ccc(N3CCN(CCCCCOc4ccc5c(c4)C(=O)N(c4ccc(F)cc4F)C5=O)CC3)nc2)C(C)(C)[C@H]1Oc1ccc(C#N)c(Cl)c1 [PROTAC-41, N-((1r,3r)-3-(3-chloro-4-cyanophenoxy)-2,2,4,4-tetramethylcyclobutyl)-6-(4-(5-((2-(2,4-difluorophenyl)-1,3-dioxoisoindolin-5-yl)oxy)pentyl)piperazin-1-yl)nicotinamide] | ≥ 100 | C (C <= 50)
4 | CC1(C)[C@H](NC(=O)c2ccc(N3CCC(CN4CCN(c5ccc(C(=O)NC6CCC(=O)NC6=O)nc5)CC4)CC3)nn2)C(C)(C)[C@H]1Oc1ccc(C#N)c(Cl)c1 (mixture of isomers) [PROTAC-54, rac-N-((1r,3r)-3-(3-chloro-4-cyanophenoxy)-2,2,4,4-tetramethylcyclobutyl)-6-(4-((4-(6-((2,6-dioxopiperidin-3-yl)carbamoyl)pyridin-3-yl)piperazin-1-yl)methyl)piperidin-1-yl)pyridazine-3-carboxamide] | 1 to 10 | B (50 < B <= 75)
5 | CC1(C)[C@H](NC(=O)c2ccc(N3CCN(CCCCCOc4ccc5ncc(-n6ccc(=O)[nH]c6=O)cc5c4)CC3)nc2)C(C)(C)[C@H]1Oc1ccc(C#N)c(Cl)c1 [PROTAC-47, N-((1r,3r)-3-(3-chloro-4-cyanophenoxy)-2,2,4,4-tetramethylcyclobutyl)-6-(4-(5-((3-(2,4-dioxo-3,4-dihydropyrimidin-1(2H)-yl)quinolin-6-yl)oxy)pentyl)piperazin-1-yl)nicotinamide] | 1 to 10 | C (C <= 50)
6 | N#Cc1ccc(O[C@H]2CC[C@H](NC(=O)c3ccc(N4CCC(CN5CCN(c6cc(C(=O)O)c(C(=O)NC7CCC(=O)NC7=O)cc6F)CC5)CC4)nn3)CC2)cc1Cl (some centres unmarked) [PROTAC-57, 5-(4-((1-(6-(((1r,4r)-4-(3-chloro-4-cyanophenoxy)cyclohexyl)carbamoyl)pyridazin-3-yl)piperidin-4-yl)methyl)piperazin-1-yl)-2-((2,6-dioxopiperidin-3-yl)carbamoyl)-4-fluorobenzoic acid] | 1 to 10 | A (A > 75)
7 | CC1(C)[C@H](NC(=O)c2ccc(N3CCN(CCCOc4cnn(C5CCC(=O)NC5=O)c(=O)c4)CC3)nc2)C(C)(C)[C@H]1Oc1ccc(C#N)c(Cl)c1 (mixture of isomers) [PROTAC-60, rac-N-((1r,3r)-3-(3-chloro-4-cyanophenoxy)-2,2,4,4-tetramethylcyclobutyl)-6-(4-(3-((1-(2,6-dioxopiperidin-3-yl)-6-oxo-1,6-dihydropyridazin-4-yl)oxy)propyl)piperazin-1-yl)nicotinamide] | ≥ 100 | C (C <= 50)
8 | CC1(C)[C@H](NC(=O)c2ccc(N3CCN(CCCCOc4ccc(C(=O)NC5CCC(=O)NC5=O)nc4)CC3)nc2)C(C)(C)[C@H]1Oc1ccc(C#N)c(Cl)c1 (mixture of isomers) [PROTAC-51, rac-5-(4-(4-(5-(((1r,3r)-3-(3-chloro-4-cyanophenoxy)-2,2,4,4-tetramethylcyclobutyl)carbamoyl)pyridin-2-yl)piperazin-1-yl)butoxy)-N-(2,6-dioxopiperidin-3-yl)picolinamide] | < 1 | C (C <= 50)
9 | CC1(C)[C@H](NC(=O)c2ccc(N3CCN(CCCCCOc4ccc5c(c4)S(=O)(=O)N(C4CCC(=O)NC4=O)C5=O)CC3)nc2)C(C)(C)[C@H]1Oc1ccc(C#N)c(Cl)c1 (some centres unmarked) [PROTAC-33, N-((1r,3r)-3-(3-chloro-4-cyanophenoxy)-2,2,4,4-tetramethylcyclobutyl)-6-(4-(5-((2-(2,6-dioxopiperidin-3-yl)-1,1-dioxido-3-oxo-2,3-dihydrobenzo[d]isothiazol-6-yl)oxy)pentyl)piperazin-1-yl)nicotinamide] | 1 to 10 | B (50 < B <= 75)
10 | CC1(C)[C@H](NC(=O)c2ccc(N3CCN(CCOCCOCc4cc5ccccc5c(=O)n4C4CCC(=O)NC4=O)CC3)nc2)C(C)(C)[C@H]1Oc1ccc(C#N)c(Cl)c1 (some centres unmarked) [PROTAC-46, N-((1r,3r)-3-(3-chloro-4-cyanophenoxy)-2,2,4,4-tetramethylcyclobutyl)-6-(4-(2-(2-((2-(2,6-dioxopiperidin-3-yl)-1-oxo-1,2-dihydroisoquinolin-3-yl)methoxy)ethoxy)ethyl)piperazin-1-yl)nicotinamide] | ≥ 100 | C (C <= 50)
11 | CC1(C)[C@H](NC(=O)c2ccc(N3CCN(CCOc4cccc5c4CN(c4ccc(F)cc4F)C5=O)CC3)nc2)C(C)(C)[C@H]1Oc1ccc(C#N)c(Cl)c1 [PROTAC-39, N-((1r,3r)-3-(3-chloro-4-cyanophenoxy)-2,2,4,4-tetramethylcyclobutyl)-6-(4-(2-((2-(2,4-difluorophenyl)-1-oxoisoindolin-4-yl)oxy)ethyl)piperazin-1-yl)nicotinamide] | ≥ 100 | 0C (C <= 50)

The next lines start with results.

Row | DC50 [nM] | SMILES | AR Dmax
12 | < 1 | CC1(C)[C@H](NC(=O)c2ccc(N3CCC(CN4CCN(c5ccc(C(=O)NC6CCC(=O)NC6=O)nc5)CC4)CC3)cc2)C(C)(C)[C@H]1Oc1ccc(C#N)c(Cl)c1 (mixture of isomers) [PROTAC-55, rac-5-(4-((1-(4-(((1r,3r)-3-(3-chloro-4-cyanophenoxy)-2,2,4,4-tetramethylcyclobutyl)carbamoyl)phenyl)piperidin-4-yl)methyl)piperazin-1-yl)-N-(2,6-dioxopiperidin-3-yl)picolinamide] | B (50 < B <= 75)
13 | < 1 | CC1(C)[C@H](NC(=O)c2ccc(N3CCC(CN4CCN(c5ccc6c(=O)n(C7CCC(=O)NC7=O)ccc6c5)CC4)CC3)cc2)C(C)(C)[C@H]1Oc1ccc(C#N)c(Cl)c1 (some centres unmarked) [PROTAC-82, N-((1r,3r)-3-(3-chloro-4-cyanophenoxy)-2,2,4,4-tetramethylcyclobutyl)-4-(4-((4-(2-(2,6-dioxopiperidin-3-yl)-1-oxo-1,2-dihydroisoquinolin-6-yl)piperazin-1-yl)methyl)piperidin-1-yl)benzamide] | A (A > 75)
14 | < 1 | Cn1c(-c2ccc(N3CCN(CC4CCN(c5ccc(C(=O)N[C@H]6C(C)(C)[C@H](Oc7ccc(C#N)c(Cl)c7)C6(C)C)cc5)CC4)CC3)cc2)nn(C2CCC(=O)NC2=O)c1=O (some centres unmarked) [PROTAC-70, N-((1r,3r)-3-(3-chloro-4-cyanophenoxy)-2,2,4,4-tetramethylcyclobutyl)-4-(4-((4-(4-(1-(2,6-dioxopiperidin-3-yl)-4-methyl-5-oxo-4,5-dihydro-1H-1,2,4-triazol-3-yl)phenyl)piperazin-1-yl)methyl)piperidin-1-yl)benzamide] | A (A > 75)
15 | < 1 | Cn1c(-c2cccc(N3CCN(CC4CCN(c5ccc(C(=O)N[C@H]6C(C)(C)[C@H](Oc7ccc(C#N)c(Cl)c7)C6(C)C)cc5)CC4)CC3)c2)nn(C2CCC(=O)NC2=O)c1=O (mixture of isomers) [PROTAC-68, rac-N-((1r,3r)-3-(3-chloro-4-cyanophenoxy)-2,2,4,4-tetramethylcyclobutyl)-4-(4-((4-(3-(1-(2,6-dioxopiperidin-3-yl)-4-methyl-5-oxo-4,5-dihydro-1H-1,2,4-triazol-3-yl)phenyl)piperazin-1-yl)methyl)piperidin-1-yl)benzamide] | A (A > 75)
16 | < 1 | CC1(C)[C@H](NC(=O)c2ccc(N3CCC(CN4CCN(c5ccc(C(=O)NC6CCC(=O)NC6=O)nc5)CC4)CC3)nc2)C(C)(C)[C@H]1Oc1ccc(C#N)c(Cl)c1 (some centres unmarked) [PROTAC-53, 5-(4-((1-(5-(((1r,3r)-3-(3-chloro-4-cyanophenoxy)-2,2,4,4-tetramethylcyclobutyl)carbamoyl)pyridin-2-yl)piperidin-4-yl)methyl)piperazin-1-yl)-N-(2,6-dioxopiperidin-3-yl)picolinamide] | A (A > 75)
